Laboratory results published in ChEMBL document CHEMBL5537154, “Smart glypican-3-targeting peptide-chlorin e6 conjugates for targeted photodynamic therapy of hepatocellular carcinoma” (Eur J Med Chem, 2024).
Values belong to the compound of their own block, whether it stands above or below them. Activity calls are given as the source filed them. The calls are words filed in the database; no cut-off is given here. Peptide text beside a SMILES is read from it.

Tests used:
HepG2 [1] = test: Antiproliferative activity against human HepG2 cells under dark condition by CCK8 assay; type: functional, cell-based
HepG2 [2] = test: Antiproliferative activity against human HepG2 cells under 10 J/cm2 light irradiation at 660 nm by CCK8 assay; type: functional, cell-based; conditions: HepG2, light or radiation study
Huh-7 [3] = test: Antiproliferative activity against human Huh-7 cells under dark condition by CCK8 assay; type: functional, cell-based
Huh-7 [4] = test: Antiproliferative activity against human Huh-7 cells under 10 J/cm2 light irradiation at 660 nm by CCK8 assay; type: functional, cell-based; conditions: Huh-7, light or radiation study
MCF7 [5] = test: Antiproliferative activity against human MCF7 cells under dark condition by CCK8 assay; type: functional, cell-based
MCF7 [6] = test: Antiproliferative activity against human MCF7 cells under 10 J/cm2 light irradiation at 660 nm by CCK8 assay; type: functional, cell-based; conditions: MCF7, light or radiation study
HeLa [7] = test: Antiproliferative activity against human HeLa cells under dark condition by CCK8 assay; type: functional, cell-based
HeLa [8] = test: Antiproliferative activity against human HeLa cells under 10 J/cm2 light irradiation at 660 nm by CCK8 assay; type: functional, cell-based; conditions: light or radiation study
[9] = Antiproliferative activity against human HUVEC cells under dark condition by CCK8 assay; type: toxicity, cell-based
[10] = Antiproliferative activity against human HUVEC cells under 10 J/cm2 light irradiation at 660 nm by CCK8 assay; type: toxicity, cell-based
[11] = Partition coefficient, logP of compound; type: physicochemical; conditions: octanol/water
[12] = Photostability of compound under 250 mW/cm2 light irradiation at 660 nm incubated for 10 mins by UV spectrophotometry; type: physicochemical; conditions: 0.66 µM
[13] = Aggregation property of compound in PBS; type: physicochemical; conditions: buffer
chymotrypsin = chymotrypsin (Homo sapiens, UniProt P17538+P40313+Q6GPI1+Q99895); test: Stability of compound assessed as chymotrypsin (unknown origin)-mediated compound degradation in PBS at pH 7.4 by measuring half life; type: ADME, protein assay
Glypican-3 = Glypican-3 (Homo sapiens, UniProt P51654); test: Binding affinity to GPC3 (unknown origin) assessed as dissociation constant by fluorescence polarization assay
[14] = […] assessed as decrease in fluorescence intensity of DMA; type: functional
[15] = Drug uptake in human MCF7 cells incubated for 2 hrs by fluorescence based assay; type: ADME, cell-based; conditions: mcf7, 2 h
[16] = Drug uptake in human HUVEC cells at 500 nM incubated for 0.5 hrs by flow cytometry; type: ADME, cell-based; conditions: 0.5 µM
HepG2 [17] = test: Induction of ROS generation in human HepG2 cells at 10 uM incubated for 24 hrs by DCFH-DA probe based flow cytometry; type: functional, cell-based
HepG2 [18] = test: Induction of ROS generation in human HepG2 cells at 10 uM preincubated for 24 hrs followed by DCFH-DA probe addition and further incubated under dark condition for 20 mins prior and 20 mins post- light irradiation of 10 J/cm2 at 660 nm by flow cytometry; type: functional, cell-based; conditions: time 24.66 hrs
[19] = Drug distribution in tumor of BALB/C nude mouse model xenografted with human HepG2 cells at 1 to 2 uM/kg, iv measured for 1 to 4 hrs by fluorescence imaging analysis; type: ADME, organism-based, Neoplasm; conditions: in vivo, dose lower 1 µM/Kg, time lower 1 hrs, dose upper 2 µM/Kg, time upper 4 hrs
[20] = Drug distribution in BALB/C nude mouse model xenografted with human HepG2 cells at 1 to 2 uM/kg, iv measured after 1 hr by fluorescence imaging analysis; type: ADME, organism-based; conditions: in vivo, dose 1-2 µM/Kg
[21] = Drug distribution in tumor of BALB/C nude mouse model xenografted with human HepG2 cells at 1 to 2 uM/kg, iv measured after 2 hrs by fluorescence imaging analysis; type: ADME, organism-based, Neoplasm; conditions: in vivo, dose 1-2 µM/Kg
HepG2 [22] = test: Antitumor activity in human HepG2 cells xenografted in BALB/C nude mouse model assessed as tumor growth inhibition at 1 uM/kg, iv administered every two days for 21 days along with 250 mW/cm2 light irradiation at 660 nm for 10 mins at 1 hr post-compound administration relative to control; type: functional; conditions: time 505.166 hrs, 505.17 h, at 1 µmol/kg
[23] = Toxicity in BALB/C nude mouse model xenografted with human HepG2 cells assessed as drug tolerance at 1 uM/kg, iv administered every two days for 21 days along with 250 mW/cm2 light irradiation at 660 nm for 10 mins at 1 hr post-compound administration; type: organism-based; conditions: in vivo, 505.17 h, time 505.166 hrs
[24] = Toxicity in BALB/C nude mouse model xenografted with human HepG2 cells assessed as body weight loss at 1 uM/kg, iv administered every two days for 21 days along with 250 mW/cm2 light irradiation at 660 nm for 10 mins at 1 hr post-compound administration; type: organism-based; conditions: in vivo, 505.17 h, time 505.166 hrs
[25] = Toxicity in BALB/C nude mouse model xenografted with human HepG2 cells assessed as change in heart weight at 1 uM/kg, iv administered every two days for 21 days along with 250 mW/cm2 light irradiation at 660 nm for 10 mins at 1 hr post-compound administration; type: organism-based; conditions: in vivo, 505.17 h, time 505.166 hrs
[26] = Toxicity in BALB/C nude mouse model xenografted with human HepG2 cells assessed as change in liver weight at 1 uM/kg, iv administered every two days for 21 days along with 250 mW/cm2 light irradiation at 660 nm for 10 mins at 1 hr post-compound administration; type: organism-based; conditions: in vivo, 505.17 h, time 505.166 hrs
[27] = Toxicity in BALB/C nude mouse model xenografted with human HepG2 cells assessed as change in spleen weight at 1 uM/kg, iv administered every two days for 21 days along with 250 mW/cm2 light irradiation at 660 nm for 10 mins at 1 hr post-compound administration; type: organism-based; conditions: in vivo, 505.17 h, time 505.166 hrs
[28] = Toxicity in BALB/C nude mouse model xenografted with human HepG2 cells assessed as change in lung weight at 1 uM/kg, iv administered every two days for 21 days along with 250 mW/cm2 light irradiation at 660 nm for 10 mins at 1 hr post-compound administration; type: organism-based; conditions: in vivo, 505.17 h, time 505.166 hrs
[29] = Toxicity in BALB/C nude mouse model xenografted with human HepG2 cells assessed as change in kidney weight at 1 uM/kg, iv administered every two days for 21 days along with 250 mW/cm2 light irradiation at 660 nm for 10 mins at 1 hr post-compound administration; type: organism-based; conditions: in vivo, 505.17 h, time 505.166 hrs
[30] = Toxicity in BALB/C nude mouse model xenografted with human HepG2 cells assessed as damage in heart at 1 uM/kg, iv administered every two days for 21 days along with 250 mW/cm2 light irradiation at 660 nm for 10 mins at 1 hr post-compound administration by H and E staining based analysis; type: organism-based; conditions: in vivo, 505.17 h, time 505.166 hrs
[31] = Toxicity in BALB/C nude mouse model xenografted with human HepG2 cells assessed as damage in liver at 1 uM/kg, iv administered every two days for 21 days along with 250 mW/cm2 light irradiation at 660 nm for 10 mins at 1 hr post-compound administration by H and E staining based analysis; type: organism-based; conditions: in vivo, 505.17 h, time 505.166 hrs
[32] = Toxicity in BALB/C nude mouse model xenografted with human HepG2 cells assessed as damage in spleen at 1 uM/kg, iv administered every two days for 21 days along with 250 mW/cm2 light irradiation at 660 nm for 10 mins at 1 hr post-compound administration by H and E staining based analysis; type: organism-based; conditions: in vivo, 505.17 h, time 505.166 hrs
[33] = Toxicity in BALB/C nude mouse model xenografted with human HepG2 cells assessed as damage in lung at 1 uM/kg, iv administered every two days for 21 days along with 250 mW/cm2 light irradiation at 660 nm for 10 mins at 1 hr post-compound administration by H and E staining based analysis; type: organism-based; conditions: in vivo, 505.17 h, time 505.166 hrs
[34] = Toxicity in BALB/C nude mouse model xenografted with human HepG2 cells assessed as damage in kidney at 1 uM/kg, iv administered every two days for 21 days along with 250 mW/cm2 light irradiation at 660 nm for 10 mins at 1 hr post-compound administration by H and E staining based analysis; type: organism-based; conditions: in vivo, 505.17 h, time 505.166 hrs
MCF7 [35] = test: Antitumor activity against human MCF7 cells xenografted in BALB/C nude mouse model assessed as decrease in tumor growth at 1 uM/kg, iv administered every two days for 21 days along with 250 mW/cm2 light irradiation at 660 nm for 10 mins at 1 hr post-compound administration; type: functional, organism-based; conditions: time 505.166 hrs

Sequence of Glypican-3 (P51654 25-358 limits assumed): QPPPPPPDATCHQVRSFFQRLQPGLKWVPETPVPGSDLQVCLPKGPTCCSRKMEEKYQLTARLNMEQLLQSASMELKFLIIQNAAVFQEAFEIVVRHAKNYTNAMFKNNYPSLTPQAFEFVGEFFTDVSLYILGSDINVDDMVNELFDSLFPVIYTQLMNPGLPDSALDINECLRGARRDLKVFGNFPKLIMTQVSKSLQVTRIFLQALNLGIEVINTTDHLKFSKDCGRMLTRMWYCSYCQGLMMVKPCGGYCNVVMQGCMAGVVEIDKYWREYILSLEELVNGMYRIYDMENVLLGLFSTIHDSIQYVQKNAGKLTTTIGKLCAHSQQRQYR
Sequence of Glypican-3 (P51654 359-554 limits assumed): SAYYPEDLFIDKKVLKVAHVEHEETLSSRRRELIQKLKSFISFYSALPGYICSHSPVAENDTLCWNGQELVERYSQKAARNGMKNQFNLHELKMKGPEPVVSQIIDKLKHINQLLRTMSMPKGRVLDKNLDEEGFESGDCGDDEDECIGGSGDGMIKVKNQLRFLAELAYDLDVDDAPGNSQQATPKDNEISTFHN

Compound: C=Cc1c(C)c2cc3nc(c(CC(=O)O)c4[nH]c(cc5nc(cc1[nH]2)C(C)=C5CC)c(C)c4C(=O)NCCCC(=O)N[C@@H](CCCNC(=N)N)C(=O)N[C@@H](CC(C)C)C(=O)N[C@@H](CC(N)=O)C(=O)N[C@H](C(=O)NCC(=O)NCC(=O)N[C@H](C(=O)N[C@@H](Cc1ccc(O)cc1)C(=O)N[C@@H](Cc1ccccc1)C(=O)N[C@@H](CC(C)C)C(=O)N[C@H](C(=O)N[C@H](C(=O)N[C@@H](CCCNC(=N)N)C(=O)N[C@@H](CCC(N)=O)C(=O)O)[C@@H](C)O)[C@@H](C)O)[C@@H](C)O)C(C)C)[C@@H](CCC(=O)O)[C@@H]3C (HELM PEPTIDE1{[C=Cc1c(C)c2cc3nc(c(CC(=O)O)c4[nH]c(cc5nc(cc1[nH]2)C(C)=C5CC)c(C)c4C(=O)[*:2])[C@@H](CCC(=O)O)[C@@H]3C].[O=C(CCCN[*:1])[*:2]].R.L.N.V.G.G.T.Y.F.L.T.T.R.Q}$$$$V2.0)
- IC50 (HepG2 [1]): > 100 µM
- IC50 (HepG2 [2]): 0.31 µM
- IC50 (Huh-7 [3]): > 100 µM
- IC50 (Huh-7 [4]): 0.25 µM
- IC50 (MCF7 [5]): > 100 µM
- IC50 (MCF7 [6]): 0.88 µM
- IC50 (HeLa [7]): > 100 µM
- IC50 (HeLa [8]): 0.72 µM
- IC50 [9]: > 200 µM
- IC50 [10]: 2.1 µM
- logP [11]: 0.8
- Stability [12]: Stable
- Activity [13]: Active
- half-life (chymotrypsin): 2.4 h

- IC50 (HepG2 [1]): > 100 µM
- IC50 (HepG2 [2]): 16 µM
- IC50 (Huh-7 [3]): > 100 µM
- IC50 (Huh-7 [4]): 18 µM
- IC50 (MCF7 [5]): > 100 µM
- IC50 (MCF7 [6]): > 10 µM
- IC50 (HeLa [7]): > 100 µM
- IC50 (HeLa [8]): > 10 µM
- Kd (Glypican-3): > 10 µM
- Activity [13]: Active
- Drug uptake [15]: Active
- Drug uptake [16]: Active
- Drug uptake [19]: Active
- Drug uptake [20]: Active
- Drug uptake [21]: Not Active
Compound: C=Cc1c(C)c2cc3nc(c(CC(=O)O)c4[nH]c(cc5nc(cc1[nH]2)C(C)=C5CC)c(C)c4C(=O)O)[C@@H](CCC(=O)O)[C@@H]3C [CHLORIN E6]
- IC50 [9]: > 200 µM
- IC50 [10]: > 10 µM
- Activity [14]: Active
- Activity (HepG2 [17]): inactive
- Activity (HepG2 [18]): Active
- TGI (HepG2 [22]): 71.3%
- Activity [23]: Non-Toxic
- Activity [24]: Non-Toxic
- Activity [25]: Non-Toxic
- Activity [26]: Non-Toxic
- Activity [27]: Non-Toxic
- Activity [28]: Non-Toxic
- Activity [29]: Non-Toxic
- Activity [30]: Non-Toxic
- Activity [31]: Non-Toxic
- Activity [32]: Non-Toxic
- Activity [33]: Non-Toxic
- Activity [34]: Non-Toxic
- Activity (MCF7 [35]): Active

- half-life (chymotrypsin): 1.1 h
Compound: H-DHLASLWWGTEL-OH
